Patent US11815448B2, “Method, reagent, and chip for measuring analyte concentration in specimen” (TERUMO KABUSHIKI KAISHA, priority 2018, dated 2023)
Where a name gives a salt, the structure may show the parent alone.

Experiment: Evaluation of maximum absorption wavelength (λmax)
Assay type: physicochemical
Protocol: A 10 mM MOPS aqueous solution is added so that the final concentrations of the respective formazan compounds are 50 to […] to prepare 100 μL of each sample. Separately, a 1M nickel ion aqueous solution is prepared. To 100 μL of the sample, 10 μL of the 1M nickel ion aqueous solution is added, and the mixture is rapidly stirred to prepare a mixed solution. The spectrum of the mixed solution is measured with a spectrophotometer (measurement cell length: 10 mm) (n=1). Based on each spectrum, the maximum absorption wavelength (λmax) (nm) of each compound in formazan is determined.
Diethyl ether was added to the reaction solution obtained in 3. above to precipitate the tetrazolium compound 1. The precipitate was centrifuged, and the supernatant was removed, followed by washing with diethyl ether. The obtained precipitate was dried in a draft to obtain tetrazolium compound 1 (120 mg, yield: 11.8% by mass). The maximum absorption wavelength (λmax) of the tetrazolium compound 1 thus obtained was measured and found to be 630 nm.

maximum absorption wavelength (λmax): 630 nm
Structure (SMILES): COc1ccc2nc(-n3nc(-c4ccc(S(=O)(=O)O)cc4S(=O)(=O)[O-])n[n+]3-c3ccc(OC)c(S(=O)(=O)O)c3)sc2c1 [tetrazolium compound 1, 2-(6-methoxybenzothiazolyl)-3-(3-sulfo-4-methoxy-phenyl)-5-(2,4-disulfophenyl)-2H-tetrazolium salt]
